Inconclusive results and toxic doses are left out. The calls were made as follows: active = survival T/C of 150% or more; inactive = T/C below 125% in these data.
Experiments:
[1] = system: BDF1 mice, P388 leukemia ip, median survival T/C; experiment: NCI In Vivo Anticancer Drug Screen. Data for tumor model P388 Leukemia (intraperitoneal) in B6D2F1 (BDF1) mice; details: endpoint: median survival time, higher = longer survival
Procedure, shortened: (§1)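 Each value expresses how treatment altered survival: treated-mouse outcome over vehicle-mouse outcome, both groups bearing the transplanted tumour.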

[2] = system: BDF1 mice, P388 leukemia ip; experiment: as above; details: endpoint: mean survival time, higher = longer survival
Procedure, shortened: as §1

Measured: T/C

CC(C)(O)/C=C/C(=O)[C@](C)(O)[C@H]1[C@H](O)C[C@@]2(C)[C@@H]3CC=C4[C@@H](C=C(O)C(=O)C4(C)C)[C@]3(C)C(=O)C[C@]12C
inactive: [1]; dose: 6.25 mg/kg/injection, schedule: Q01DX009 (ip), vehicle: Klucel (hydroxypropylcellulose) (HPC) 100 % of control | [1]; dose: 6.25 mg/kg/injection, schedule: Q04DX003 (ip), vehicle: other 90 % of control | [1]; dose: 12.5 mg/kg/injection, schedule: Q04DX003 (ip), vehicle: other 104 % of control | [1]; dose: 25.0 mg/kg/injection, schedule: Q01DX009 (ip), vehicle: Klucel (hydroxypropylcellulose) (HPC) 100 % of control | [1]; dose: 25.0 mg/kg/injection, schedule: Q04DX003 (ip), vehicle: other 104 % of control | [1]; dose: 50.0 mg/kg/injection, schedule: Q01DX009 (ip), vehicle: Klucel (hydroxypropylcellulose) (HPC) 100 % of control | [1]; dose: 50.0 mg/kg/injection, schedule: Q04DX003 (ip), vehicle: other 109 % of control | [2]; dose: 1.5 mg/kg/injection, schedule: Q01DX010 (ip), vehicle: carboxymethylcellulose (CMC) 97 % of control | [2]; dose: 3.0 mg/kg/injection, schedule: Q01DX010 (ip), vehicle: carboxymethylcellulose (CMC) 99 % of control | [2]; dose: 6.0 mg/kg/injection, schedule: Q01DX010 (ip), vehicle: carboxymethylcellulose (CMC) 101 % of control

CCN(CC)CCCC(C)NC(=O)c1cccc2c([N+](=O)[O-])cccc12 (stereo not drawn)
inactive: [2]; dose: 3.12 mg/kg/injection, schedule: Q01DX009 (ip), vehicle: water 94 % of control | [2]; dose: 12.5 mg/kg/injection, schedule: Q01DX009 (ip), vehicle: water 100 % of control | [2]; dose: 25.0 mg/kg/injection, schedule: Q01DX009 (ip), vehicle: water 110 % of control | [2]; dose: 50.0 mg/kg/injection, schedule: Q01DX009 (ip), vehicle: water 95 % of control | [2]; dose: 100.0 mg/kg/injection, schedule: Q01DX009 (ip), vehicle: water 106 % of control

CC1(C)C(=O)C(O)=CC2C1=CCC1C2(C)C(=O)CC2(C)C(C(C)(O)C(=O)CC(O)C(C)(C)O)C(O)CC12C (stereo not drawn)
inactive: [2]; dose: 4.5 mg/kg/injection, schedule: Q01DX010 (ip), vehicle: carboxymethylcellulose (CMC) 95 % of control | [2]; dose: 9.0 mg/kg/injection, schedule: Q01DX010 (ip), vehicle: carboxymethylcellulose (CMC) 101 % of control | [2]; dose: 36.0 mg/kg/injection, schedule: Q01DX010 (ip), vehicle: carboxymethylcellulose (CMC) 103 % of control

From PubChem BioAssay AID328 (DTP/NCI, 2004)
